Patent US20180280329A1, “INHIBITORS OF PLASMINOGEN FOR TREATING, REDUCING OR PREVENTING RADIATION-INDUCED INJURIES” (OMNIO AB, priority 2015, published 2018)

How the values were obtained:
plasminogen = target: T1, plasminogen (Mus musculus, UniProt P20918); experiment: Burn wound model: plasminogen accumulation in wound skin extracts (ELISA); format: in vivo; details: WT mice, TXA 800 mg/kg injected three times at 8 h intervals, skin at 24 h after wounding, compared to mice treated with PBS
T1 construct: Burn wounds were introduced to three WT mice and TXA (800 mg/kg) was injected three times at 8 h intervals; from tissue; host or cells: skin of wild-type mice (burn wound), in vivo
Experimental: Dorsal skin samples from irradiated and not-irradiated control mice were homogenized in a lysis buffer (50 mM Tris-HCl buffer pH 8.0 with 120 mM NaCl, 1 mM EDTA, 6 mM EGTA, 1% NP-40 and 1 mM DTT) supplemented with PhosSTOP phosphatase inhibitors and Complete Ultra mini protease inhibitor cocktail tablets (both from Roche, Basel, Switzerland). The skin extracts were then kept at −20° C. until use. Total protein concentration in the extracts was quantified using Pierce BCA protein assay kit, according to the manufactural instruction (ThermoFisher Scientific, Waltham, U.S.A). Mouse IL-6 and TNF-alpha levels in the extracts were measured using specific ELISA kits from eBioscience (San Diego, U.S.A). Mouse plasminogen was quantified with a mouse plasminogen-specific ELISA (Omnio AB, Umeå, Sweden).
Mice were anesthetized with Dormicum/Hypnorm and burn wounds were made with a brass stave as described previously (Shen et al. 2012, Blood 119:5879). The mice were given a single injection of Temgesic (Schering-Plough, Brussels, Belgium) the day after burning. All mice were individually caged, and wounds were neither sutured nor dressed.
Initially, the burn wound model (Shen et al. 2012, Blood 119:5879) was used to test whether TXA has an effect on plasminogen accumulation in the wound. […]

[1] = tested on: radiation-induced dermatitis; experiment: Radiation-induced dermatitis model (15 Gy to dorsal skin), radio-dermatitis documented by photos and scored; format: in vivo, mouse; details: for development and severity of radio-dermatitis: irradiated WT mice
Experimental: Dorsal skin of mice had been shaved 3 days prior to irradiation. For the irradiation, the mice were anesthetized by intraperitoneal injection of 150 μl mixture containing Ketaminol vet. (Intervet AB, Sollentuna, Sweden) and Dormitor vet. (Orion Pharma AB, Espoo, Finland). Mice were laid into a lead box to protect the whole body from irradiation, while the dorsal skin was gently stretched out through a 4 cm-long gap in the bottom of the box and maintained with medical tape. Irradiation box with a mouse was then placed in Gammacell 40 exactor (Ashford, UK) that has two Caesium-137 sources. Irradiation was given as a single dose of 1 Gy per minute over 15 min (total dose 15 Gy).
Digital photographs of the dorsal skin were taken on the specified days after irradiation. The wound size was quantified using Image J (National Institute of Mental Health, Bethesda, Md.). Severity of radio-dermatitis was scored, with the scores defined as: 0=normal, 1=erythema, 2=desquamation, 3=ulcer.
WT and plg^+/− were intraperitoneally injected with 800 mg/kg of TXA in PBS three times per day. The injections started 2 days before the irradiation and continued for 15 days after the irradiation. Development of dermatitis was documented by digital photos and skin samples were analyzed as described in Example 2.
(§1) In this experiment, mice were treated as in Example 3, with the exception that TXA was given in drinking water in dose 700 mg/kg/day. Real-time PCR was performed as described in Example 3.

IL-1β = experiment: Quantitative RT-PCR of irradiated skin: IL-1β mRNA; format: in vivo, mouse; details: irradiated WT mice, TXA in drinking water, day 9 after irradiation
Experimental: (§2) Skin samples were homogenized in TRIzol (Ambion) using Precellys CK28R tubes on a Precellys 24 homogenizer (both from Bertin Technologies, France) according to the manufacturer's instructions. Total RNA was extracted with PureLink RNA Mini Kit (Ambion) according to the manufacturer's instruction. 2.5 μg of total RNA was reverse transcribed using Superscript VILO cDNA synthesis kit (Invitrogen) and diluted 3 fold with DEPC-water. Expression of genes were analyzed using quantitative real-time PCR with Comparative CT method and with TBP mRNA as the internal reference gene. The gene-specific primers and probes (TaqMan Gene Expression Assays) were from Applied Biosytems, and 2× SsoAdvanced Universal Probes Supermix was from BIO-RAD. Each sample was run in triplicate on StepOnePlus Instrument (Applied Biosystems) using real-time PCR cycling conditions for 2× SsoAdvanced Universal Probes Supermix.
as §1

IL-6 = experiment: Quantitative RT-PCR of irradiated skin: IL-6 mRNA; format: in vivo, mouse; details: irradiated WT mice, TXA in drinking water, day 9 after irradiation
Experimental: as §2, §1

TGF-β = experiment: Quantitative RT-PCR of irradiated skin: TGF-β mRNA; format: in vivo, mouse; details: irradiated WT mice, TXA in drinking water, day 9 after irradiation
Experimental: as §2, §1

PAI-1 = experiment: Quantitative RT-PCR of irradiated skin: PAI-1 mRNA; format: in vivo, mouse; details: irradiated WT mice, TXA in drinking water, day 9 after irradiation
Experimental: as §2, §1

T1 sequence (P20918 20-812 limits assumed): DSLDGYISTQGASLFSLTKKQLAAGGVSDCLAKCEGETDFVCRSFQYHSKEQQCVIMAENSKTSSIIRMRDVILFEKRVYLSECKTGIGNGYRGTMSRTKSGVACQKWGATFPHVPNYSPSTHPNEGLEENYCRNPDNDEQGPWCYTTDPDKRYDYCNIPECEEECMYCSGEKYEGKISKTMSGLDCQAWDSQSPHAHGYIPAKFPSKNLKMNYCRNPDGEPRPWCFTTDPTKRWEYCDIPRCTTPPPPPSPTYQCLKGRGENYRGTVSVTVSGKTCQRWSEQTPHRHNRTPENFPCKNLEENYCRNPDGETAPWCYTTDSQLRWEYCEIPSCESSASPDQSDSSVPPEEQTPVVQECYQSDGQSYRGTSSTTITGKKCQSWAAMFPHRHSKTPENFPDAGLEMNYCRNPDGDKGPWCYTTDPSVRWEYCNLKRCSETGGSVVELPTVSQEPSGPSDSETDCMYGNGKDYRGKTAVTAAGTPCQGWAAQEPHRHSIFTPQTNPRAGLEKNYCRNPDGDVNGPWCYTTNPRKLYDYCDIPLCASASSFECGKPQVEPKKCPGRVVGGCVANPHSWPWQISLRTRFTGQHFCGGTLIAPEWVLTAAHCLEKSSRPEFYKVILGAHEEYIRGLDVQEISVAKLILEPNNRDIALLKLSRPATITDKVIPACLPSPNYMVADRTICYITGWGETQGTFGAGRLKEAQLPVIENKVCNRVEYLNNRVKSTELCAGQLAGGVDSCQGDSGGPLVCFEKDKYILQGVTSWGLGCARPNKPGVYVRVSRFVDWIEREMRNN

NC[C@H]1CC[C@H](C(=O)O)CC1 [TXA, trans-4 (aminomethyl) cyclohexanecarboxylic acid]
inhibition of plasminogen accumulation in wounds (plasminogen): 50% | development and severity of radio-dermatitis ([1]; TXA 800 mg/kg intraperitoneally three times per day, from 2 days before to 15 days after irradiation, vs carrier): delayed development of dermatitis and with a lower severity | development and severity of radio-dermatitis ([1]; TXA in drinking water 700 mg/kg/day, vs control WT mice treated with water only): significant delay in development of radio-dermatitis and a lower severity of skin damage | development of radio-dermatitis ([1]; irradiated plg+/- mice, TXA 800 mg/kg intraperitoneally three times per day, from 2 days before to 15 days after irradiation): completely blocked | formation of radiodermatitis ([1]; irradiated plg+/- mice, TXA in drinking water 700 mg/kg/day): totally inhibited formation of radiodermatitis | level of IL-1β expression in skin (IL-1β): very low | expression of IL-6 in skin (IL-6): decreased expression | expression of TGF-β in skin (TGF-β): decreased expression | expression of PAI-1 in skin (PAI-1): decreased expression
